The source of these data is US8709303B2, “Dielectric insulation medium” (ABB Research Ltd., priority 2010, dated 2014).

The nature of series [1]: risk for human toxicity, concluded from mammalian HFC tests. Particulars: concluded from available results of mammalian HFC tests. From the text:
This can be concluded from the available results of mammalian HFC (hydrofluorocarbon) tests. Also, information available on commercial hydrofluoro monoethers give no evidence of carcinogenicity, mutagenicity, reproductive/developmental effect and other chronic effects of the compounds of the present application.

The conditions of series [2]: products include I2; cited from earlier work.
A short description of a further series: thermal stability. Particulars: 175° C. for 30 days.

Consider `FC(F)(F)COC(F)(F)F` [2,2,2-trifluoroethyl-trifluoromethyl ether (CF3—O—CH2CF3)], for which the “risk for human toxicity” value in series [1] was “low risk for human toxicity”.
Turning to `FC(F)(F)I` [CF3I, trifluoroiodomethane (CF3I)], the “temperature at which decomposition into hazardous products starts” value in series [2] is “around 100 °C”.
`COC(F)(F)C(F)(F)F` [pentafluoro-ethyl-methyl ether, pentafluoro-ethyl-methyl ether (CH3—O—CF2CF3)]: the “risk for human toxicity” value in series [1] is listed as “low risk for human toxicity”. Moreover, in the series “thermal stability”, the thermal stability result is listed as “thermally stable”.
